{"source": "patent US20090311237A1", "about": "“Combination therapy using a soluble hyaluronidase and a bisphosphonate” (priority 2008, published 2009)", "assay": "Phase 1 Stage 1 clinical pharmacokinetics of SC ZA co-administered with rHuPH20", "format": "in vivo, human", "conditions": "human, serum, sc; for AUC(0-inf): read-out: AUC (0-∞); for Tmax: read-out: Tmax", "procedure": "A pharmacokinetic study of zoledronic acid (ZA) co-administered with rHuPH20 in human subjects was conducted. The primary objective of the study was to determine the bioavailability of zoledronic acid dosed via subcutaneous (SC) co-administration with human recombinant hyaluronidase PH20 (rHuPH20). […] The patients were administered the prescribed dosage formulations as follows: Cohorts 1-5 were administered a single subcutaneous infusion in a dosage volume of 100 ml at a rate of 3 mL/min. […] The dosing solution is administered via needle or catheter into the SC space of the left anterior thigh (midway between the anterior iliac crest and the cephalad border of the patella). For cohorts 1-5, the dosing solutions were administered by a controlled rate infusion pump at approximately 3 mL/minute. […] The dosing solutions were administered by syringe push bolus injection. […] Serum concentration of ZA was determined using a qualified LC-MS-MS assay after derivatization with diazomethane (Zhu, L S et al. (2006) Rapid Commun. […] The assay range was from 2.0 to 400 ng/mL with a lower limit of quantitation (LLOQ) at 2.0 ng/mL. […] Non-compartmental analysis was used for derivation of primary and secondary pharmacokinetic (PK) parameters. […] Summary statistics (mean, standard deviation, and median) were calculated using JMP or Microsoft Excel.", "key": {"[1]": {"conditions": "ZA 0.25 mg SC + 24000 U rHuPH20, individual subjects"}, "[2]": {"conditions": "ZA 0.25 mg SC + 24000 U rHuPH20, mean, n=3"}, "[3]": {"conditions": "ZA 0.25 mg SC + 24000 U rHuPH20, median, n=3"}, "[4]": {"conditions": "ZA 0.5 mg SC + 24000 U rHuPH20, individual subjects"}, "[5]": {"conditions": "ZA 0.5 mg SC + 24000 U rHuPH20, mean, n=3"}, "[6]": {"conditions": "ZA 0.5 mg SC + 24000 U rHuPH20, median, n=3"}, "[7]": {"conditions": "ZA 1 mg SC + 24000 U rHuPH20, individual subjects"}}, "note": "Where two headings read alike, the source gives them in different places."}
{"smiles": "O=P(O)(O)C(O)(Cn1ccnc1)P(=O)(O)O", "note": "[ZA, 1-hydroxy-2-(1H-imidazol-1-yl)ethylidene-1,1-bisphosphonic acid]", "values": [{"measurement": "Cmax", "setting": "[1]", "value": 6.84, "unit": "ng/mL"}, {"measurement": "AUC(0-inf)", "setting": "[1]", "value": 30.8, "unit": "ng·h/mL"}, {"measurement": "MRT", "setting": "ZA 0.25 mg SC + 24000 U rHuPH20, individual subjects, read-out: MRT", "value": 2.93, "unit": "h"}, {"measurement": "Tmax", "setting": "[1]", "value": 1.06, "unit": "h"}, {"measurement": "Vd/F", "setting": "ZA 0.25 mg SC + 24000 U rHuPH20, individual subjects, read-out: Vss/F", "value": 0.435, "unit": "L/kg"}, {"measurement": "Vd/F", "setting": "ZA 0.25 mg SC + 24000 U rHuPH20, individual subjects, read-out: Vz/F", "value": 0.402, "unit": "L/kg"}, {"measurement": "CL/F", "setting": "[2]", "value": 2, "unit": "mL/min/kg"}, {"measurement": "Cmax", "setting": "[2]", "value": 6.75, "unit": "ng/mL"}, {"measurement": "AUC(0-inf)", "setting": "[2]", "value": 30.9, "unit": "ng·h/mL"}, {"measurement": "MRT", "setting": "ZA 0.25 mg SC + 24000 U rHuPH20, mean, n=3, read-out: MRT", "value": 3.5, "unit": "h"}, {"measurement": "Tmax", "setting": "[2]", "value": 1.31, "unit": "h"}, {"measurement": "Vd/F", "setting": "ZA 0.25 mg SC + 24000 U rHuPH20, mean, n=3, read-out: Vss/F", "value": 0.411, "unit": "L/kg"}, {"measurement": "Vd/F", "setting": "ZA 0.25 mg SC + 24000 U rHuPH20, mean, n=3, read-out: Vz/F", "value": 0.364, "unit": "L/kg"}, {"measurement": "CL/F", "setting": "[3]", "value": 1.8, "unit": "mL/min/kg"}, {"measurement": "Cmax", "setting": "[3]", "value": 6.84, "unit": "ng/mL"}, {"measurement": "AUC(0-inf)", "setting": "[3]", "value": 30.8, "unit": "ng·h/mL"}, {"measurement": "MRT", "setting": "ZA 0.25 mg SC + 24000 U rHuPH20, median, n=3, read-out: MRT", "value": 3.37, "unit": "h"}, {"measurement": "Tmax", "setting": "[3]", "value": 1.31, "unit": "h"}, {"measurement": "Vd/F", "setting": "ZA 0.25 mg SC + 24000 U rHuPH20, median, n=3, read-out: Vss/F", "value": 0.433, "unit": "L/kg"}, {"measurement": "Vd/F", "setting": "ZA 0.25 mg SC + 24000 U rHuPH20, median, n=3, read-out: Vz/F", "value": 0.363, "unit": "L/kg"}, {"measurement": "MRT", "setting": "ZA 0.25 mg, SC […] infusion, 100 mL, 3 mL/min, 24000 Units rHuPH20, extrapolated to ∞, individual subjects, read-out: SC MRT", "value": 3.37, "unit": "h"}, {"measurement": "CL/F", "setting": "[4]", "value": 2.35, "unit": "mL/min/kg"}, {"measurement": "Cmax", "setting": "[4]", "value": 15.3, "unit": "ng/mL"}, {"measurement": "AUC(0-inf)", "setting": "[4]", "value": 62.5, "unit": "ng·h/mL"}, {"measurement": "MRT", "setting": "ZA 0.5 mg SC + 24000 U rHuPH20, individual subjects, read-out: MRT", "value": 3.19, "unit": "h"}, {"measurement": "Tmax", "setting": "[4]", "value": 0.81, "unit": "h"}, {"measurement": "Vd/F", "setting": "ZA 0.5 mg SC + 24000 U rHuPH20, individual subjects, read-out: Vss/F", "value": 0.451, "unit": "L/kg"}, {"measurement": "Vd/F", "setting": "ZA 0.5 mg SC + 24000 U rHuPH20, individual subjects, read-out: Vz/F", "value": 0.456, "unit": "L/kg"}, {"measurement": "CL/F", "setting": "[5]", "value": 2.08, "unit": "mL/min/kg"}, {"measurement": "Cmax", "setting": "[5]", "value": 15.5, "unit": "ng/mL"}, {"measurement": "AUC(0-inf)", "setting": "[5]", "value": 65, "unit": "ng·h/mL"}, {"measurement": "MRT", "setting": "ZA 0.5 mg SC + 24000 U rHuPH20, mean, n=3, read-out: MRT", "value": 3.26, "unit": "h"}, {"measurement": "Tmax", "setting": "[5]", "value": 1.14, "unit": "h"}, {"measurement": "Vd/F", "setting": "ZA 0.5 mg SC + 24000 U rHuPH20, mean, n=3, read-out: Vss/F", "value": 0.406, "unit": "L/kg"}, {"measurement": "Vd/F", "setting": "ZA 0.5 mg SC + 24000 U rHuPH20, mean, n=3, read-out: Vz/F", "value": 0.407, "unit": "L/kg"}, {"measurement": "CL/F", "setting": "[6]", "value": 2.18, "unit": "mL/min/kg"}, {"measurement": "Cmax", "setting": "[6]", "value": 15.3, "unit": "ng/mL"}, {"measurement": "AUC(0-inf)", "setting": "[6]", "value": 64.4, "unit": "ng·h/mL"}, {"measurement": "MRT", "setting": "ZA 0.5 mg SC + 24000 U rHuPH20, median, n=3, read-out: MRT", "value": 3.24, "unit": "h"}, {"measurement": "Tmax", "setting": "[6]", "value": 1.31, "unit": "h"}, {"measurement": "Vd/F", "setting": "ZA 0.5 mg SC + 24000 U rHuPH20, median, n=3, read-out: Vss/F", "value": 0.423, "unit": "L/kg"}, {"measurement": "Vd/F", "setting": "ZA 0.5 mg SC + 24000 U rHuPH20, median, n=3, read-out: Vz/F", "value": 0.428, "unit": "L/kg"}, {"measurement": "CL/F", "setting": "[7]", "value": 2.38, "unit": "mL/min/kg"}, {"measurement": "Cmax", "setting": "[7]", "value": 30.1, "unit": "ng/mL"}, {"measurement": "AUC(0-inf)", "setting": "[7]", "value": 122, "unit": "ng·h/mL"}]}
